# Assay results taken from patent US11130769B2 (Prelude Therapeutics Incorporated, priority 2018, dated 2021).
# Columns and labels:
# [1] = target: MCL-1 (Homo sapiens (Human), UniProt Q07820); test: Cell free Mcl-1:Bim affinity assay (fluorescence polarization competition); format: binding; conditions: 15 nM MCL-1, 5 nM FITC-Bim, 1 hour at room temperature; class symbols; read-out: BIM_Ki
# Summary of the method: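 Compounds competed with FITC-labelled Bim peptide (5 nM) for MCL-1 (15 nM) in HEPES/NaCl buffer with 1% DMSO, 1 h at room temperature. Fluorescence polarization (535 nm emission) gave % inhibition versus DMSO and positive controls; IC50 from 10-point curves, converted to Ki by the Nikolovska-Coleska equation.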
# [2] = system: H929 cells; test: Cell viability assay (H929 10 FBS); format: cell-based; conditions: Homo sapiens, NCI-H929, 24 hours, read-out: H929_10FBS IC50
# Summary of the method: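 H929 cells, 4000/well, in RPMI 1640 with 10% FBS, sodium pyruvate, HEPES and glucose were exposed to compound 24 h at 37 °C. Viability read as luminescence after 30-60 min at RT with CellTiter-Glo or ATPlite 1 Step.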
# MCL-1, sequence (Q07820 whole entry): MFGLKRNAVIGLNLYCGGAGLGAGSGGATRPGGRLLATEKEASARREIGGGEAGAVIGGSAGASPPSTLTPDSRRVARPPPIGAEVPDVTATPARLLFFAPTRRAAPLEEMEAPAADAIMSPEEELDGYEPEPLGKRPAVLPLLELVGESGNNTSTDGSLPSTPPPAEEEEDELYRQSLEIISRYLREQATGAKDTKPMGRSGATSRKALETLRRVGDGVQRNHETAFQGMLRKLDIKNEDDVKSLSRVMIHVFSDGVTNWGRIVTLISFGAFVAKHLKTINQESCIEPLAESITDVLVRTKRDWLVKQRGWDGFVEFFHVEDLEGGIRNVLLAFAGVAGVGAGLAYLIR
Structure (SMILES),Ki [1] [nM],IC50 [2] [nM]
"CN(C(=O)O[C@H]1/C=C/CN(C)C2(CCC2)C(=O)NS(=O)(=O)c2ccc3c(c2)N(C[C@@H]2CC[C@H]21)C[C@@]1(CCCc2cc(Cl)ccc21)CO3)[C@@H]1CCOC1 [Example 242, [(3R,6R,7S,8E,22S)-6′-Chloro-11-methyl-12,12-(1,3-propylene)-13,15,15-trioxo-spiro[20-oxa-15-thia-1,11,14-triazatetracyclo[14.7.2.03,6.019,24]pentacosa-8,16,18,24-tetraene-22,1′-tetralin]-7-yl] N-methyl-N-[(3R)-tetrahydrofuran-3-yl]carbamate]",< 1,< 500
"CN1C/C=C/[C@H](OC(=O)N2CCN3CCOCC3C2)[C@@H]2CC[C@H]2CN2C[C@@]3(CCCc4cc(Cl)ccc43)COc3ccc(cc32)S(=O)(=O)NC(=O)C1(C)C (stereo in doubt) [Example 208, [(3R,6R,7S,8E,22S)-6′-Chloro-11,12,12-trimethyl-13,15,15-trioxo-spiro[20-oxa-15-thia-1,11,14-triazatetracyclo[14.7.2.03,6.019,24]pentacosa-8,16,18,24-tetraene-22,1′-tetralin]-7-yl] (9aS)-3,4,6,7,9,9a-hexahydro-1H-pyrazino[2,1-c][1,4]oxazine-8-carboxylate]",1 to 100,< 500
"CNCCN(C)C(=O)O[C@H]1/C=C/COC(C)(C)C(=O)NS(=O)(=O)c2ccc3c(c2)N(C[C@@H]2CC[C@H]21)C[C@@]1(CCCc2cc(Cl)ccc21)CO3 [Example 194, [(3R,6R,7S,8E,22S)-6′-Chloro-12,12-dimethyl-13,15,15-trioxo-spiro[11,20-dioxa-15-thia-1,14-diazatetracyclo[14.7.2.03,6.019,24]pentacosa-8,16,18,24-tetraene-22,1′-tetralin]-7-yl] N-methyl-N-[2-(methylamino)ethyl]carbamate]",< 1,< 500
"CC1(C)OC/C=C/[C@@H](OCCN2CC(F)(F)C2)[C@@H]2CC[C@H]2CN2C[C@@]3(CCCc4cc(Cl)ccc43)COc3ccc(cc32)S(=O)(=O)NC1=O [Example 272, (3R,6R,7R,8E,22S)-6′-Chloro-7-[2-(3,3-difluoroazetidin-1-yl)ethoxy]-12,12-dimethyl-15,15-dioxo-spiro[11,20-dioxa-15-thia-1,14-diazatetracyclo[14.7.2.03,6.019,24]pentacosa-8,16,18,24-tetraene-22,1′-tetralin]-13-one]",< 1,< 500
"[2H]C([2H])([2H])N1C/C=C/[C@H](OC(=O)N(C)C)[C@@H]2CC[C@H]2CN2C[C@@]3(CCCc4cc(Cl)ccc43)COc3ccc(cc32)S(=O)(=O)NC(=O)C1(C)C [Example 45, [(3R,6R,7S,8E,22S)-6′-Chloro-12,12-dimethyl-13,15,15-trioxo-11-(trideuteriomethyl)spiro[20-oxa-15-thia-1,11,14-triazatetracyclo[14.7.2.03,6.019,24]pentacosa-8,16,18,24-tetraene-22,1′-tetralin]-7-yl] N,N-dimethylcarbamate]",< 1,< 500
"CN(C(=O)O[C@H]1/C=C/COC(C)(C)C(=O)NS(=O)(=O)c2ccc3c(c2)N(C[C@@H]2CC[C@H]21)C[C@]1(CO3)OCCc2cc(Cl)ccc21)C1CCOCC1 [Example 300, [(3R,6R,7S,8E,22R)-6′-Chloro-12,12-dimethyl-13,15,15-trio-spiro[11,20-dioxa-15-thia-1,14-diazatetracyclo[14.7.2.03,6.019,24]pentacosa-8,16,18,24-tetraene-22,1′-isochromane]-7-yl] N-methyl-N-tetrahydropyran-4-yl-carbamate]",< 1,< 1000
"CC1(C)OC/C=C/[C@H](OC(=O)N[C@@H]2CCOC2)[C@@H]2CC[C@H]2CN2C[C@@]3(CCOc4cc(Cl)ccc43)COc3ccc(cc32)S(=O)(=O)NC1=O [Example 302, [(3R,6R,7S,8E,22S)-7′-Chloro-12,12-dimethyl-13,15,15-trioxo-spiro[11,20-dioxa-15-dioxa-15-thia-1,14-diazatetracyclo[14.7.2.03,6.019,24]pentacosa-8,16,18,24-tetraene-22,4′-chromane]-7-yl] N-[(3R)-tetrahydrofuran-3-yl]carbamate]",< 1,< 500
"CC1(C)OC/C=C/[C@H](OC(=O)NCC(F)F)[C@@H]2CC[C@H]2CN2C[C@@]3(CCCc4cc(Cl)ccc43)COc3ccc(cc32)S(=O)(=O)NC1=O [Example 179, [(3R,6R,7S,8E,22S)-6′-Chloro-12,12-dimethyl-13,15,15-trioxo-spiro[11,20-dioxa-15-thia-1,14-diazatetracyclo[14.7.2.03,6.019,24]pentacosa-8,16,18,24-tetraene-22,1′-tetralin]-7-yl] N-(2,2-difluoroethyl)carbamate]",< 1,< 500
"CO[C@@H]1/C=C/C[C@H](C)[C@@H](CO)C(=O)NS(=O)(=O)c2ccc3c(c2)N(C[C@@H]2CC[C@H]21)C[C@@]1(CCCc2cc(Cl)ccc21)CO3 [Example 94, (3R,6R,7R,8E,11S,12S,22S)-6′-Chloro-12-(hydroxymethyl)-7-methoxy-11-methyl-15,15-dioxo-spiro[20-oxa-15-thia-1,14-diazatetracyclo[14.7.2.03,6.019,24]pentacosa-8,16,18,24-tetraene-22,1′-tetralin]-13-one]",< 1,> 1000
"CN(C)CCN(C)C(=O)O[C@H]1/C=C/COC2(CCC2)C(=O)NS(=O)(=O)c2ccc3c(c2)N(C[C@@H]2CC[C@H]21)C[C@@]1(CCCc2cc(Cl)ccc21)CO3 [Example 233, [(3R,6R,7S,8E,22S)-6′-Chloro-12,12-(1,3-propylene)-13,15,15-trioxo-spiro[11,20-dioxa-15-thia-1,14-diazatetracyclo[14.7.2.03,6.019,24]pentacosa-8,16(25),17,19(24)-tetraene-22,1′-tetralin]-7-yl] N-[2-(dimethylamino)ethyl]-N-methyl-carbamate]",< 1,< 500
"CN1CCN(CCO[C@H]2/C=C/COC(C)(C)C(=O)NS(=O)(=O)c3ccc4c(c3)N(C[C@@H]3CC[C@H]32)C[C@@]2(CCCc3cc(Cl)ccc32)CO4)CC1 [Example 259, (3R,6R,7S,8E,22S)-6′-Chloro-12,12-dimethyl-7-[2-(4-methylpiperazin-1-yl)ethoxy]-15,15-dioxo-spiro[11,20-dioxa-15-thia-1,14-diazatetracyclo[14.7.2.03,6.019,24]pentacosa-8,16,18,24-tetraene-22,1′-tetralin]-13-one]",< 1,< 500
"CC1(C)OC/C=C/[C@H](OC(=O)NC2CCOCC2)[C@@H]2CC[C@H]2CN2C[C@@]3(CCOc4cc(Cl)ccc43)COc3ccc(cc32)S(=O)(=O)NC1=O [Example 305, [(3R,6R,7S,8E,22S)-7′-Chloro-12,12-dimethyl-13,15,15-trioxo-spiro[11,20-dioxa-15-thia-1,14-diazatetracyclo[14.7.2.03,6.019,24]pentacosa-8,16,18,24-tetraene-22,4′-chromane]-7-yl] N-tetrahydropyran-4-yl-carbamate]",< 1,< 500
"CO[C@@H]1/C=C/CN(C)C(C)(C)C(=O)NS(=O)(=O)c2ccc3c(c2)N(C[C@@H]2CC[C@H]21)C[C@@]1(CCCc2cc(Cl)ccc21)CO3 [Example 42, (3R,6R,7R,8E,22S)-6′-Chloro-7-methoxy-11,12,12-trimethyl-15,15-dioxo-spiro[20-oxa-15-thia-1,11,14-triazatetracyclo[14.7.2.03,6.019,24]pentacosa-8,16,18,24-tetraene-22,1′-tetralin]-13-one]",1 to 100,< 500
